Data set [1] addresses T1, E. coli GAR TFase (Escherichia coli, UniProt P08179).
T1 construct: made in house; host or cells: E. coli TX393 with multicopy plasmid pJS85, or E. coli TX635 with lambda pL plasmid pJS119 or pJS167
T1 sequence (P08179 1-212): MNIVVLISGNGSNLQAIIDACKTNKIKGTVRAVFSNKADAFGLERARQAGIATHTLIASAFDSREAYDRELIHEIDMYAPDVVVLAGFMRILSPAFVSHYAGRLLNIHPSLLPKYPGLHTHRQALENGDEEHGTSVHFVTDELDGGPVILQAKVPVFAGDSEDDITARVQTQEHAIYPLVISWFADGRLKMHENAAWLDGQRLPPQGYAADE
Description: E. coli GAR TFase inhibition/activity assay (5,8-dideazafolate absorbance at 295 nm). The data set is classed as biochemical. How it is done:
(§1) All assays were carried out by following the increase of 5,8-dideazafolate absorbence at 295 nm in buffered medium at 26° C. To initiate the reaction, enzyme (1 nM final concentration) was added to a mixture of saturating substrates and variable amounts of inhibitor. A characteristic family of curves was obtained, showing slow, tight-binding inhibition. See, Morrison, Trends Biochem. Sc., 7, 102 (1982) and Morrison, et al., Adv. Enzymology, Relat. Areas Mol. Biol., 57, 201-301 (1987).
(§2) In analyzing the biological activity of the compounds of the present invention, GAR TFase from E. coli was used. This enzyme behaves like the mammalian and avian enzyme with respect to substrate specificity, yet is a simple and effective system having only one biological activity. That is, unlike the avian trifunctional GAR TFase, the E. coli species has a sole function. This follows from the genetic evidence of Smith and Daum, J. Biol. Chem., 262, 10565-10569 (1987) as w®11 as the work of Schrimsher et al., Biochemistry, 25, 4366-4371 (1986) who have shown that […] from E. coli is a monofunctional protein, whereas, in chicken it belongs to a trifunctional protein containing, the activates: GAR SYNthase, GAR TFase, and AIR SYNthase.
The E. coli GAR TFase binding constants for the compounds of the present invention and other folate analogs are shown in Table I below:
Table II illustrates the specificity of beta-TGDDF for GAR TFase in comparison with other reduced-folate utilizing enzymes. This test, was conducted using the same [I]/[E]ratios as stated previously.

The test system of another data set is GAR TFase. The conditions noted are these: indirectly shown, solid tumors in mice; cited from earlier work.
The test system of data set [2] is intracellular pools of ATP and GTP. To be noted: tested against solid tumors in mice; cited from earlier work.
The next data set relates to solid tumors. To be noted: variety of solid tumors in mice; cited from earlier work.
The subject of the next data set is HL-60. To be noted: in vivo and in vitro; cited from earlier work.
Another data set has as its system 6C3HED lymphosarcoma. To be noted: in vivo and in vitro; cited from earlier work.
For a further data set, the system named is X-5563. To be noted: in vivo and in vitro; cited from earlier work.
A further data set concerns B-16 melanoma. To be noted: in vivo and in vitro; cited from earlier work.
In a further data set the test system is L1210 leukemia. To be noted: in vivo and in vitro; cited from earlier work.
A further data set relates to P388 leukemia. The conditions noted are these: in vivo and in vitro; cited from earlier work.
The target in data set [3] is T1, E. coli GAR TFase. Kind of data set: Fluorescence titration, dissociation constant for E. coli GAR TFase. The data set is classed as binding. On the procedure: The thermodynamic dissociation constant, KD, for the E.β-TGDDF complex was measured by following the enhancement of the inhibitor's 395 nm fluorescence (excitation at 275 nm) upon binding to GAR TFase. A concentrated E. coli GAR TFase solution was added to an 11 nM solution of purified β-TGDDF; for each addition, the fluorescence at three different wavelengths (396, 400, and 405 nm) was measured. Fluorescence titration data was analyzed by the method of Taira and Benkovic, J. Med. Chem., 31, 129-137 (1988).
as §2
(§3) The E. coli GAR TFase binding constants for the compounds of the present invention and other folate analogs are shown in Table I below: […]

Substrate in data set [4]: NCC(=O)N[C@@H]1O[C@H](COP(=O)(O)O)[C@@H](O)[C@H]1O
Description: E. coli GAR TFase inhibition/activity assay (5,8-dideazafolate absorbance at 295 nm). The data set is classed as biochemical. The conditions noted are these: other: Table I, 26.0 °C. How it is done:
as §1, §2, §3

Substrate in data set [5]: Nc1nc(O)c2cc(CN(C=O)c3ccc(C(=O)N[C@@H](CCC(=O)O)C(=O)O)cc3)ccc2n1
The data set is described as above. The data set is classed as biochemical. The conditions noted are these: other: Table I, 26.0 °C. How it is done: as §1, §2, §3

The term Ki denotes a measure of affinity in units of concentration, obtained from inhibition or displacement. Broadly, the Kd is the equilibrium constant for the complex coming apart. Broadly, the Km is the substrate concentration at which the rate is half of its maximum.

Where two headings read alike, the source gives them in different places.

On to `Nc1nc2ccc(CN(C(=O)CSCC(=O)NC3O[C@H](CO)[C@@H](O)[C@H]3O)c3ccc(C(=O)N[C@@H](CCC(=O)O)C(=O)O)cc3)cc2c(=O)[nH]1` (stereo partly drawn) [alpha,beta-dephospho-TGDDF], for which the Ki at E. coli GAR TFase [1] (Table I, E. coli GAR TFase, read-out: KI) amounted to 1700 nM.

Regarding `Nc1nc2c(c(=O)[nH]1)CC(CCc1ccc(C(=O)NC(CCC(=O)O)C(=O)O)cc1)CN2` (stereo not shown) [DDATHF], the “Inhibition of GAR TFase” value with GAR TFase is “indirectly shown to inhibit GAR TFase”. Moreover, the “Effect on intracellular pools of ATP and GTP” value in data set [2] was “depletion of intracellular pools of ATP and GTP”. For the same molecule, in the data set on solid tumors, the “Activity against solid tumors” value is listed as “impressive activity”. Moreover, the Anti-tumor activity result with HL-60, with 6C3HED lymphosarcoma, in the data set with X-5563, in the data set with B-16 melanoma, in the data set with L1210 leukemia and in the data set on P388 leukemia was “anti-tumor,activity” in each case.

As for `CN(Cc1cnc2nc(N)nc(N)c2n1)c1ccc(C(=O)N[C@@H](CCC(=O)O)C(=O)O)cc1` [methotrexate], the “Activity against solid tumors” value with solid tumors is “minimal activity”.

The molecule `Nc1nc2ccc(CNc3ccc(C(=O)N[C@@H](CCC(=O)O)C(=O)O)cc3)cc2c(=O)[nH]1` [DDF, 5,8-dideazafolate, reference compound] registered a Ki on E. coli GAR TFase [1] of 28100 nM.

In the case of `Nc1nc2ccc(CN(C(=O)CSCC(=O)N[C@H]3O[C@H](COP(=O)(O)O)[C@@H](O)[C@H]3O)c3ccc(C(=O)N[C@@H](CCC(=O)O)C(=O)O)cc3)cc2c(=O)[nH]1` [alpha-TGDDF], the “binding affinity for GAR TFase (comparison of anomers)” value on E. coli GAR TFase [3] (alpha- versus beta-anomer) was “lower than the beta-anomer”. Besides, the Kd at E. coli GAR TFase [3] (alpha-anomer, read-out: KD) stood at 5.8 nM.

B1: E. coli GAR TFase (Escherichia coli K-12) (protein)
chain: MNIVVLISGNGSNLQAIIDACKTNKIKGTVRAVFSNKADAFGLERARQAGIATHTLIASAFDSREAYDRELIHEIDMYAPDVVVLAGFMRILSPAFVSHYAGRLLNIHPSLLPKYPGLHTHRQALENGDEEHGTSVHFVTDELDGGPVILQAKVPVFAGDSEDDITARVQTQEHAIYPLVISWFADGRLKMHENAAWLDGQRLPPQGYAADE
notes: made in house; host or cells: E. coli TX393 with multicopy plasmid pJS85, or E. coli TX635 with lambda pL plasmid pJS119 or pJS167
On to B1, for which the results for the Km in data set [4] and in data set [5] were 20 µM and 36 µM, respectively.
